Assay type in all cases: biochemical
The target of test [1] is C-Raf (Homo sapiens (Human), UniProt P04049). Description: Raf kinase assay (C-Raf), [33P] incorporation into MEK1(K97R). The method, boiled down: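 Recombinant C-Raf (2 ng) or B-Raf or B-Raf V600E (5 ng each) phosphorylated 500 ng MEK1(K97R) with 8 μM ATP plus [33P]ATP, pH 7.5, 30 min at 30 °C. Filter-captured 33P counted. IC50 from 3-fold compound dilutions run in duplicate.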

Test [2] concerns the target VEGFR2 kinase (Homo sapiens (Human), UniProt P35968). Description: VEGFR2 kinase assay. The method, then: Inhibition of VEGFR2 kinase activity by compounds disclosed herein was quantified by measuring the amount of [^33P] incorporated into the substrate in the presence of a test compound. […] The reaction was then stopped by adding 5 μL of 3% phosphoric acid solution. The resultant solution was transferred to and harvested by a filter plate (UniFilter-96 GF/B, PerkinElmer). The filter plate was then washed 20 times with d.d. H2O for 5 min followed by the addition of 30 μL of MicroScint™-20 Cocktail (PerkinElmer). After the plate was sealed, the retained radioactivity on the filter was counted using a TopCount™ scintillation detector (PerkinElmer). […]

The target in test [3] is FGFR1 kinase (Homo sapiens (Human), UniProt P11362). Description: FGFR1 kinase assay. The method, then:
Inhibition of FGFR1 kinase activity by compounds disclosed herein was quantified by measuring the amount of [^33P] incorporated into the substrate in the presence of a test compound. Briefly, a reaction mixture of 25 μL final volume containing 1 ng of FGFR1 kinase (FGFR1 kinase domain alone, Millipore), 5 μg of the substrate [poly(Glu-Tyr), Sigma], kinase reaction buffer (14 mM MOPS pH 7.0, 0.2 mM EDTA, 0.5% glycerol, 0.001% Brij-35, 0.01% β-mercaptoethanol, 0.1 mg/ml BSA, 100 μM ATP, 0.1 μCi per well [^33P]-γ-ATP (2,500-3,000 Ci/mmol)), and a test compound (100 nM, diluted with 4% DMSO) or DMSO (as the control) was incubated at 30° C. for 60 minutes. The reaction was stopped by adding 5 μL of 3% phosphoric acid solution. The resultant reaction solution was then harvested onto a filter plate (UniFilter-96 GF/B, PerkinElmer), washed 20 times for 5 min with d.d. H2O, and followed by the addition of 30 μL of MicroScint™-20 Cocktail (PerkinElmer). The radioactivity retained on the filter membrane was measured by TopCount™ scintillation detector (PerkinElmer). The results were analyzed by using linear regression software (GraphPad Prism™ 4; GraphPad Software Inc.). IC50 value is defined as the concentration of the test compound which achieves a half-maximal inhibition of the kinase activity.

Test [4] addresses FLT3 kinase (Homo sapiens (Human), UniProt P36888). Briefly: FLT3 kinase assay. The method, then:
Inhibition of FLT3 kinase activity by compounds disclosed herein was quantified by measuring the amount of [^33P] incorporated into the substrate in the presence of a test compound. Briefly, a reaction mixture of 25 μL final volume containing 5 ng of Flt3 kinase (obtained by purifying recombinant N-terminal 6×His-tagged Flt3 kinase domain construct expressed from baculovirus), 5 μg of the substrate (Poly(Glu-Tyr, 4:1, Sigma)), kinase reaction buffer (20 mM MOPS pH 7.0, 1 mM EDTA, 5% glycerol, 0.01% Brij-35, 0.1% β-mercaptoethanol, 1 mg/mL BSA, 100 μM ATP, 0.1 μCi per well [^33P]-γ-ATP (2,500-3,000 Ci/mmol)), and a test compound (100 nM, diluted with 4% DMSO) or DMSO (as the control) was incubated at 30° C. for 30 minutes. The reaction was stopped by adding 5 μL of 3% phosphoric acid solution. The resultant reaction solution was then harvested onto a filter plate (UniFilter-96 GF/B, PerkinElmer), washed 20 times for 5 min with d.d. H2O, and followed by the addition of 30 μL of MicroScint™-20 Cocktail (PerkinElmer). The plate was then sealed and counted using a TopCount™ scintillation detector (PerkinElmer). IC50 value is defined as the concentration of the test compound which achieves a half-maximal inhibition of the kinase activity.

For test [5], the target named is Cdk1 kinase (Homo sapiens (Human), UniProt P06493). Description: CDK1 kinase assay. The method, then: Inhibition of Cdk1 kinase activity by compounds disclosed herein was quantified by measuring the amount of [^33P] incorporated into the substrate in the presence of a test compound. Briefly, a reaction mixture of 25 μL final volume containing 5 ng of Cdk1 kinase (Cdk1 kinase domain alone, Millipore), 3 μg of the substrate [Histone H1], kinase reaction buffer (10 mM MOPS pH 7.0, 0.3 mM EDTA, 0.5% glycerol, 0.001% Brij-35, 0.1 mg/ml BSA, 10 μM ATP, 0.1 μCi per well [^33P]-γ-ATP (2,500-3,000 Ci/mmol)), and a test compound (100 nM, diluted with 4% DMSO) or DMSO (as the control) was incubated at 30° C. for 30 minutes. The reaction was stopped by adding 5 μL of 3% phosphoric acid solution. The resultant reaction solution was then harvested onto a filter plate (UniFilter-96 GF/B, PerkinElmer), washed 20 times for 5 min with d.d. H2O, and followed by the addition of 30 μL of MicroScint™-20 Cocktail (PerkinElmer). The radioactivity retained on the filter membrane was measured by TopCount™ scintillation detector (PerkinElmer). The results were analyzed by using linear regression software (GraphPad Prism™ 4; GraphPad Software Inc.).
Sequence of Cdk1 kinase (P06493 4-287): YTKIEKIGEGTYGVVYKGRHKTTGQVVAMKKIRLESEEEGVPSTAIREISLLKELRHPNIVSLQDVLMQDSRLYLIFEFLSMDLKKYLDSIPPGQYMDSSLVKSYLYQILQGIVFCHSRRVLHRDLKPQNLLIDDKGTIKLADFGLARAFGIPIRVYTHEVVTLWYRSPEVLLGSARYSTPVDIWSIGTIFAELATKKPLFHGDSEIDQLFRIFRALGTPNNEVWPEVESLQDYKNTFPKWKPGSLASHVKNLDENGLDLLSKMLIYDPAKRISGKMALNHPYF
Sequence of Cdk1 kinase (P14635 whole entry partner, the tested form may be a part): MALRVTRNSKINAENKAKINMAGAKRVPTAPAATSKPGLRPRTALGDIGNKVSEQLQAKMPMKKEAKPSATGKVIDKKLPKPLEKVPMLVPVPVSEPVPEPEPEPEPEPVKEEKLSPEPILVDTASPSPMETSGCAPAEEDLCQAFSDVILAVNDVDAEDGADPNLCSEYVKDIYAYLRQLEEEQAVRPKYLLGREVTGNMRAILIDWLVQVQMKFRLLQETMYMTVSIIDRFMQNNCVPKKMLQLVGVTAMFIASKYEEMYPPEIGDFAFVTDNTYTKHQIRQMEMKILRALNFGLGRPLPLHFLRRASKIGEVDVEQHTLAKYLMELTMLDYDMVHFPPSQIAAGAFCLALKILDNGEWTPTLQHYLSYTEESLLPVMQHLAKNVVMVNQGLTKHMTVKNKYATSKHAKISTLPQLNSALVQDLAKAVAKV

Structures are written as SMILES.

Sequence of C-Raf (P04049 whole entry): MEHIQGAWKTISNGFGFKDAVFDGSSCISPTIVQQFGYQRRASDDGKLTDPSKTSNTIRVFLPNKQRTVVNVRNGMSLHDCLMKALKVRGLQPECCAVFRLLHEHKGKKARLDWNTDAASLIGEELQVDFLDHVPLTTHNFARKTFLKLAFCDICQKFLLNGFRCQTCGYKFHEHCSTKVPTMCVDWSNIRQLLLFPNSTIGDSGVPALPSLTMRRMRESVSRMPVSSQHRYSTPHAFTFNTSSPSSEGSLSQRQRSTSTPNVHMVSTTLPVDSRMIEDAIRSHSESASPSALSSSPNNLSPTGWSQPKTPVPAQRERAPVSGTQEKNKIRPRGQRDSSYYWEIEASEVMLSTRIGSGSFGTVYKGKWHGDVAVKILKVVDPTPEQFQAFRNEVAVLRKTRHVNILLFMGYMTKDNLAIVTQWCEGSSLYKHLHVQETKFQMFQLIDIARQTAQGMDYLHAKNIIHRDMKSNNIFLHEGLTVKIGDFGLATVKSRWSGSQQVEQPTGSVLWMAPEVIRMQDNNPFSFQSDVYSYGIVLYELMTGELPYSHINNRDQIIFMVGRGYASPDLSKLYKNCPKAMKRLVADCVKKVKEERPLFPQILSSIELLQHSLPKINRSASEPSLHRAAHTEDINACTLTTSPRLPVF
Sequence of FLT3 kinase (P36888 610-943): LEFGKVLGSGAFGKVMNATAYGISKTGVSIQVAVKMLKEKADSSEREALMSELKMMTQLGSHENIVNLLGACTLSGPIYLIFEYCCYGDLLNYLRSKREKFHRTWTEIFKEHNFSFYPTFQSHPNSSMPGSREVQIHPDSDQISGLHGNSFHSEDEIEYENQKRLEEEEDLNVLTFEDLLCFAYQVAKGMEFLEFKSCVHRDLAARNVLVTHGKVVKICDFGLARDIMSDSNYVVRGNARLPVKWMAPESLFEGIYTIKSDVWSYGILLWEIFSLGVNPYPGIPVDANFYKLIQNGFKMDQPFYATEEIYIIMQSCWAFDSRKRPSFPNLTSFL
Sequence of VEGFR2 kinase (P35968 834-1162): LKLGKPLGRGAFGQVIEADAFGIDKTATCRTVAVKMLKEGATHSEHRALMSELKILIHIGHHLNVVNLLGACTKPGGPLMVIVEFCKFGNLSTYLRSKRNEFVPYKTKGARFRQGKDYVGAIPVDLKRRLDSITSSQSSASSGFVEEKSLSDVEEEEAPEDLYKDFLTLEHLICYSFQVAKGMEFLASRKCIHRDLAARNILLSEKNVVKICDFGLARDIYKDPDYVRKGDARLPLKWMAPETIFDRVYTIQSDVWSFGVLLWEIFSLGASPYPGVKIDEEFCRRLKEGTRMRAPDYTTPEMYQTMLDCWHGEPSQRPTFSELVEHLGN
Sequence of FGFR1 kinase (P11362 478-767): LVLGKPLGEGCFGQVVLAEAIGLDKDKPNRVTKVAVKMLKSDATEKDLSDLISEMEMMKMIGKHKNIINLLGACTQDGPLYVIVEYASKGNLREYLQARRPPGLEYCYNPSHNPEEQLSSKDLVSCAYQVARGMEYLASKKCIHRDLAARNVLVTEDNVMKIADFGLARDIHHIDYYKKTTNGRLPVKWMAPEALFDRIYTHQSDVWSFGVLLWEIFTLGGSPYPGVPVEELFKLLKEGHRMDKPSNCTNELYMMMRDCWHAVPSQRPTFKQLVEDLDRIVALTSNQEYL

In general, IC50 refers to the midpoint of a concentration-inhibition curve. Read a high IC50 as weaker potency. As usually defined, the inhibition is the relative decrease from the control value, in per cent. Turning to `COc1cc(-c2ccc3ncnc(Nc4cccc(O)c4)c3c2)ccc1O` [Compound 8, 4-(4-(3-hydroxyphenylamino)quinazolin-6-yl)-2-methoxyphenol], the IC50 in test [1] came out at 255 nM; in test [2], 139 nM; in test [3], 413 nM; in test [4], 271 nM. In test [5], testing at 1 µM gave an inhibition of 88%.
For `COc1cc(-c2ccc3ncnc(Nc4cc(O)ccc4F)c3c2)ccc1O` [Compound 58, 4-(4-(2-fluoro-5-hydroxyphenylamino)quinazolin-6-yl)-2-methoxyphenol], in that order: 170 nM, 23.5 nM, 131 nM, 137 nM and 78%.

Source of the values: patent US8785459B2, “Quinazoline compounds as kinase inhibitors” (Development Center for Biotechnology, priority 2011, dated 2014).
